Measurements published in the NIST ThermoML archive (doi:10.1016/j.jct.2016.04.002).
± gives the expanded uncertainty stated by the source.

Legend:
[1] = Molar enthalpy of transition or fusion; settings: Crystal; DSC
[2] = Crystal; DTA

Molar enthalpy of transition or fusion [1]: 12.1 ± 0.526 kcal/mol
Normal melting temperature [2]: 167.01 ± 1.1 °C
Compound: O=C(O)[C@]1(O)C[C@@H](O)[C@@H](O)[C@H](O)C1
